From patent publication US20140200265A1, “USAGE OF 1,3,5,7-TETRAHYDROXY-8-ISOPRENYLXANTHONE FOR TREATING INFLAMMATION” (Hong Kong Baptist University, priority 2013, published 2014)
Converted amounts (≈) assume the structure as drawn. Like-named read-outs stand apart in the source and are kept apart here.

Tests used:
[1] = tested on: NO production in LPS and IFN-γ stimulated RAW264.7 cells; test: Assay for NO accumulation in stimulated macrophages (Griess reaction); format: cell-based; conditions: Mus musculus, 24 hours; for IC50: 10 U/ml IFN-γ and 100 ng/ml LPS
Protocol: RAW264.7 were maintained in RPMI 1640 medium supplemented with 10% FBS at 37° C. in a humidified 5% CO2 atmosphere. Cells were plated in a 96-well plate (5×10^3 cells/well) and allowed to attach overnight. The cells were then stimulated with 10 U/ml of IFN-γ and 100 ng/ml of LPS for 24 hours in the presence or absence of tested compound with final concentration of 50, 25, 12.5, 6.25, 3.125 μg/mL, and Indometacin as positive drug.
iNOS function was analyzed with Griess reaction and was applied for measurement of nitrite concentration in the culture supernatant. Briefly, 100 μl/well of sample was incubated with equal volume of Griess solution at room temperature for 10 min. The absorbance was evaluated at 540 nm using a calibration curve with a sodium nitrite standard. Percent inhibition was expressed as [1-(NO level of sample/NO level of vehicle treated-control)]×100 (Table 1).

[2] = tested on: miR-155 expression in stimulated RAW264.7 cells; test: Assay for microRNA155 expression in stimulated macrophages (qRT-PCR); format: cell-based; conditions: RAW264.7 cells, 1, 2, 4 μg/mL, 24 hours, FIG. 2
Protocol: RAW264.7 cells were pretreated with tested sample (1,2,4 μg/mL,) for 1 hour and then stimulated for 24 hours. The cells were harvested. Total RNA was extracted and RNA concentrations were determined. Quantitative RT-PCR analyses on miRNAs were performed using TaqMan miR NA assays (Applied Biosystems, USA). 50 ng of RNA per reaction was subjected for RT reaction. RT reaction was carried out using the following conditions: 16° C. for 30 minutes, 42° C. for 30 minutes, and 85° C. for 5 minutes. Expression levels of the miRNAs were determined by qRT-PCR using TaqMan Expression Assays (Applied Biosystems, USA). RNU6 endogenous control was used for normalization, and expression levels were presented as ΔCt with standard deviation (FIG. 2).
As miR-155 plays an important role in the innate immune response or inflammation, the effect of 1,3,5,7-tetrahydroxy-8-isoprenylxanthone on the expression of miR-155 by qRT-PCR was evaluated. In FIG. 2, the cells were stimulated with 100 ng/ml of LPS and 10 U/ml of IFN-γ only or LPS plus different concentrations (1,2,4 μg/mL) of sample for 24 hours. Total RNA was isolated and the expression of miRNA-155 was determined by qRT-PCR. […] RNU6B was used here as an endogenous control. The data represent the mean±SD of triplicate experiments. **p<0.01 compared with the LPS plus IFN-γ.

[3] = tested on: Candida albicans secreted aspartic proteases (SAP); conditions: Planta Med. 2002; 68(1):49-54; cited from earlier work

Compound `COc1ccc2c(c1)c(CC(=O)O)c(C)n2C(=O)c1ccc(Cl)cc1` [Indometacin, reference compound] has an inhibition at 1 µg/mL ([1]; 1 μg/mL, IFN-γ and LPS, read-out: The inhibitory effect on NO accumulation (percent inhibition)) of 46.5%.

In the case of `CC(C)=CCc1c(O)cc(O)c2oc3cc(O)cc(O)c3c(=O)c12` [1,3,5,7-tetrahydroxy-8-isoprenylxanthone], the IC50 ([1]; read-out: The inhibitory effect on NO accumulation, IC50) is reported as 5.06 µM, the IC50 ([1]; read-out: The inhibitory effect on NO accumulation, IC50(μg/mL)) is reported as 1.66 µg/mL and the “Effect on LPS plus IFN-γ-induced miR-155 expression” value [2] is reported as “reduced LPS plus IFN-γ-induced miR-155 expression in a dose-dependent manner”. For the same compound, the “IC50 against Candida albicans secreted aspartic proteases (SAP)” value [3] was 25 mg/L (≈ 76.1 µM).
